Laboratory results: patent US12077503B2, “Substituted cyclic amides and their use as herbicides” (FMC CORPORATION, priority 2015, dated 2024)

Columns and labels:
Assay type in all cases: in vivo
[1] = test system: corn (Zea mays); experiment: Test G Post-Emergence Protocol; conditions: Zea mays, post-emergence, 312 h, read-out: Corn damage rating; for plant injury at 15.625 g/ha: 15.625 g ai/ha, evaluated after 13 days (100=total damage to plant; 0=no damage to plant); for plant injury at 62.5 g/ha: 62.5 g ai/ha; for plant injury at 62.5 g/ha / plant injury at 250 g/ha: evaluated after 13 days, 100=total damage to plant, 0=no damage to plant; for plant injury at 250 g/ha: 250 g ai/ha
In short: (§1)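 Values are percent visual injury at 13 days after treatment (0 none, 100 total). Treatment was a post-emergence spray at 15.625, 62.5 or 250 g/ha on 8-day-old pot plants kept at 24/16 °C.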

[2] = test system: redroot pigweed (Amaranthus retroflexus); experiment: Test G Post-Emergence Protocol; conditions: Amaranthus retroflexus, post-emergence, 312 h, read-out: Pigweed, Redroot damage rating; for pest or weed control at 15.625 g/ha: 15.625 g ai/ha, evaluated after 13 days (100=total damage to plant; 0=no damage to plant); for pest or weed control at 62.5 g/ha: 62.5 g ai/ha; for pest or weed control at 62.5 g/ha / pest or weed control at 250 g/ha: evaluated after 13 days, 100=total damage to plant, 0=no damage to plant; for pest or weed control at 250 g/ha: 250 g ai/ha
In short: as §1

[3] = test system: velvetleaf (Abutilon theophrasti); experiment: Test G Post-Emergence Protocol; conditions: Abutilon theophrasti, post-emergence, 312 h, read-out: Velvetleaf damage rating; for pest or weed control at 15.625 g/ha: 15.625 g ai/ha, evaluated after 13 days (100=total damage to plant; 0=no damage to plant); for pest or weed control at 62.5 g/ha: 62.5 g ai/ha; for pest or weed control at 62.5 g/ha / pest or weed control at 250 g/ha: evaluated after 13 days, 100=total damage to plant, 0=no damage to plant; for pest or weed control at 250 g/ha: 250 g ai/ha
In short: as §1

[4] = test system: giant foxtail (Setaria faberi); experiment: Test G Post-Emergence Protocol; conditions: Setaria faberi, post-emergence, 312 h, read-out: Foxtail, Giant damage rating; for pest or weed control at 15.625 g/ha: 15.625 g ai/ha, evaluated after 13 days (100=total damage to plant; 0=no damage to plant); for pest or weed control at 62.5 g/ha: 62.5 g ai/ha
In short: as §1

[5] = test system: ivy-leaved morning glory (Ipomoea hederacea); experiment: Test G Post-Emergence Protocol; conditions: Ipomoea, post-emergence, 312 h, read-out: Morningglory, Ivy-leaved damage rating; for pest or weed control at 15.625 g/ha: 15.625 g ai/ha, evaluated after 13 days (100=total damage to plant; 0=no damage to plant); for pest or weed control at 62.5 g/ha: 62.5 g ai/ha; for pest or weed control at 62.5 g/ha / pest or weed control at 250 g/ha: evaluated after 13 days, 100=total damage to plant, 0=no damage to plant; for pest or weed control at 250 g/ha: 250 g ai/ha
In short: as §1

[6] = test system: barnyardgrass (Echinochloa crus-galli); experiment: Test G Post-Emergence Protocol; conditions: Echinochloa crus-galli, post-emergence, 312 h, read-out: Barnyardgrass damage rating; for pest or weed control at 15.625 g/ha: 15.625 g ai/ha, evaluated after 13 days (100=total damage to plant; 0=no damage to plant); for pest or weed control at 62.5 g/ha: 62.5 g ai/ha; for pest or weed control at 62.5 g/ha / pest or weed control at 250 g/ha: evaluated after 13 days, 100=total damage to plant, 0=no damage to plant; for pest or weed control at 250 g/ha: 250 g ai/ha
In short: as §1

[7] = test system: corn (Zea mays); experiment: Test G Pre-Emergence Protocol; conditions: Zea mays, pre-emergence, 312 h, evaluated after 13 days; for plant injury at 15.625 g/ha: 15.625 g ai/ha; for plant injury at 15.625 g/ha / plant injury at 250 g/ha: read-out: Corn damage rating (100=total damage to plant; 0=no damage to plant); for plant injury at 62.5 g/ha: 62.5 g ai/ha, 100=total damage to plant, 0=no damage to plant, read-out: Corn damage rating; for plant injury at 250 g/ha: 250 g ai/ha
In short: (§2)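 Glasshouse pre-emergence test: soil-sown seeds, sprayed after 1 d at 15.625, 62.5 or 250 g/ha. Conditions 24/16° C day/night, 14 h light, 65% humidity, watering twice daily. Rating 13 d post-spray (100 = total damage).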

[8] = test system: redroot pigweed (Amaranthus retroflexus); experiment: Test G Pre-Emergence Protocol; conditions: Amaranthus retroflexus, pre-emergence, 312 h, evaluated after 13 days; for pest or weed control at 15.625 g/ha: 15.625 g ai/ha; for pest or weed control at 15.625 g/ha / pest or weed control at 250 g/ha: read-out: Pigweed, Redroot damage rating (100=total damage to plant; 0=no damage to plant); for pest or weed control at 62.5 g/ha: 62.5 g ai/ha, 100=total damage to plant, 0=no damage to plant, read-out: Pigweed, Redroot damage rating; for pest or weed control at 250 g/ha: 250 g ai/ha
In short: as §2

[9] = test system: velvetleaf (Abutilon theophrasti); experiment: Test G Pre-Emergence Protocol; conditions: Abutilon theophrasti, pre-emergence, 312 h, evaluated after 13 days; for pest or weed control at 15.625 g/ha: 15.625 g ai/ha; for pest or weed control at 15.625 g/ha / pest or weed control at 250 g/ha: read-out: Velvetleaf damage rating (100=total damage to plant; 0=no damage to plant); for pest or weed control at 62.5 g/ha: 62.5 g ai/ha, 100=total damage to plant, 0=no damage to plant, read-out: Velvetleaf damage rating; for pest or weed control at 250 g/ha: 250 g ai/ha
In short: as §2

[10] = test system: giant foxtail (Setaria faberi); experiment: Test G Pre-Emergence Protocol; conditions: Setaria faberi, pre-emergence, 312 h, evaluated after 13 days; for pest or weed control at 15.625 g/ha: 15.625 g ai/ha; for pest or weed control at 15.625 g/ha / pest or weed control at 250 g/ha: read-out: Foxtail, Giant damage rating (100=total damage to plant; 0=no damage to plant); for pest or weed control at 62.5 g/ha: 62.5 g ai/ha, 100=total damage to plant, 0=no damage to plant, read-out: Foxtail, Giant damage rating; for pest or weed control at 250 g/ha: 250 g ai/ha
In short: as §2

[11] = test system: ivy-leaved morning glory (Ipomoea hederacea); experiment: Test G Pre-Emergence Protocol; conditions: Ipomoea, pre-emergence, 312 h, evaluated after 13 days; for pest or weed control at 15.625 g/ha: 15.625 g ai/ha; for pest or weed control at 15.625 g/ha / pest or weed control at 250 g/ha: read-out: Morningglory, Ivy-leaved damage rating (100=total damage to plant; 0=no damage to plant); for pest or weed control at 62.5 g/ha: 62.5 g ai/ha, 100=total damage to plant, 0=no damage to plant, read-out: Morningglory, Ivy-leaved damage rating; for pest or weed control at 250 g/ha: 250 g ai/ha
In short: as §2

[12] = test system: barnyardgrass (Echinochloa crus-galli); experiment: Test G Pre-Emergence Protocol; conditions: Echinochloa crus-galli, pre-emergence, 312 h, evaluated after 13 days; for pest or weed control at 15.625 g/ha: 15.625 g ai/ha; for pest or weed control at 15.625 g/ha / pest or weed control at 250 g/ha: read-out: Barnyardgrass damage rating (100=total damage to plant; 0=no damage to plant); for pest or weed control at 62.5 g/ha: 62.5 g ai/ha, 100=total damage to plant, 0=no damage to plant, read-out: Barnyardgrass damage rating; for pest or weed control at 250 g/ha: 250 g ai/ha
In short: as §2

[13] = evaluated after 13 days, 100=total damage to plant, 0=no damage to plant

Q: Which plant injury at 15.625 g/ha [1] does the source give for `CC(C)Oc1cc(F)cc(C2CN(C)C(=O)C2C(=O)Nc2cccc(F)c2F)c1` (centres unmarked) [Compound 1724] here?
A: 0%

Q: And the plant injury at 62.5 g/ha [1]?
A: 30%

Q: What about the plant injury at 250 g/ha [1] of the same compound?
A: 90%

Q: And the pest or weed control at 15.625 g/ha [2]?
A: 0%

Q: And the pest or weed control at 62.5 g/ha [2]?
A: 10%

Q: What about the pest or weed control at 250 g/ha [2] of the same compound?
A: 60%

Q: What about the pest or weed control at 15.625 g/ha [3] of the same compound?
A: 0%

Q: And the pest or weed control at 62.5 g/ha [3]?
A: 10%

Q: And the pest or weed control at 250 g/ha [3]?
A: 70%

Q: And the pest or weed control at 15.625 g/ha [4]?
A: 70%

Q: And the pest or weed control at 62.5 g/ha [4, 13]?
A: 70%

Q: What about the pest or weed control at 250 g/ha ([4]; 250 g ai/ha, evaluated after 13 days, 100=total damage to plant, 0=no damage to plant) of the same compound?
A: 90%

Q: What about the pest or weed control at 15.625 g/ha [5] of the same compound?
A: 40%

Q: And the pest or weed control at 62.5 g/ha [5]?
A: 30%

Q: What about the pest or weed control at 250 g/ha [5] of the same compound?
A: 70%

Q: What about the pest or weed control at 15.625 g/ha [6] of the same compound?
A: 40%

Q: What about the pest or weed control at 62.5 g/ha [6] of the same compound?
A: 70%

Q: And the pest or weed control at 250 g/ha [6]?
A: 90%

Q: And the plant injury at 15.625 g/ha [7]?
A: 0%

Q: What about the plant injury at 62.5 g/ha [7] of the same compound?
A: 40%

Q: What about the plant injury at 250 g/ha [7] of the same compound?
A: 90%

Q: And the pest or weed control at 15.625 g/ha [8]?
A: 0%

Q: And the pest or weed control at 62.5 g/ha [8]?
A: 0%

Q: And the pest or weed control at 250 g/ha [8]?
A: 0%

Q: And the pest or weed control at 15.625 g/ha [9]?
A: 0%

Q: What about the pest or weed control at 62.5 g/ha [9] of the same compound?
A: 0%

Q: And the pest or weed control at 250 g/ha [9]?
A: 0%

Q: And the pest or weed control at 15.625 g/ha [10]?
A: 70%

Q: What about the pest or weed control at 62.5 g/ha [10] of the same compound?
A: 70%

Q: What about the pest or weed control at 250 g/ha [10] of the same compound?
A: 90%

Q: What about the pest or weed control at 15.625 g/ha [11] of the same compound?
A: 0%

Q: And the pest or weed control at 62.5 g/ha [11]?
A: 0%

Q: What about the pest or weed control at 250 g/ha [11] of the same compound?
A: 0%

Q: What about the pest or weed control at 15.625 g/ha [12] of the same compound?
A: 50%

Q: What about the pest or weed control at 62.5 g/ha [12] of the same compound?
A: 70%

Q: And the pest or weed control at 250 g/ha [12]?
A: 90%

Q: For `CN1CC(C2CCN=C(C(C)(C)C)N2)C(C(=O)Nc2ccc(F)c(F)c2F)C1=O` (centres unmarked) [Compound 1771], which plant injury at 15.625 g/ha [1] is on record?
A: 0%

Q: And the plant injury at 62.5 g/ha [1]?
A: 0%

Q: What about the plant injury at 250 g/ha [1] of the same compound?
A: 0%

Q: What about the pest or weed control at 15.625 g/ha [2] of the same compound?
A: 0%

Q: And the pest or weed control at 62.5 g/ha [2]?
A: 0%

Q: And the pest or weed control at 250 g/ha [2]?
A: 0%

Q: What about the pest or weed control at 15.625 g/ha [3] of the same compound?
A: 0%

Q: And the pest or weed control at 62.5 g/ha [3]?
A: 0%

Q: What about the pest or weed control at 250 g/ha [3] of the same compound?
A: 0%

Q: And the pest or weed control at 15.625 g/ha [4]?
A: 0%

Q: What about the pest or weed control at 62.5 g/ha [4, 13] of the same compound?
A: 0%

Q: And the pest or weed control at 15.625 g/ha [5]?
A: 0%

Q: What about the pest or weed control at 62.5 g/ha [5] of the same compound?
A: 0%

Q: And the pest or weed control at 250 g/ha [5]?
A: 0%

Q: And the pest or weed control at 15.625 g/ha [6]?
A: 0%

Q: And the pest or weed control at 62.5 g/ha [6]?
A: 0%

Q: And the pest or weed control at 250 g/ha [6]?
A: 0%

Q: And the plant injury at 15.625 g/ha [7]?
A: 0%

Q: What about the plant injury at 62.5 g/ha [7] of the same compound?
A: 0%

Q: And the plant injury at 250 g/ha [7]?
A: 0%

Q: What about the pest or weed control at 15.625 g/ha [8] of the same compound?
A: 0%

Q: And the pest or weed control at 62.5 g/ha [8]?
A: 0%

Q: And the pest or weed control at 250 g/ha [8]?
A: 0%

Q: What about the pest or weed control at 15.625 g/ha [9] of the same compound?
A: 0%

Q: What about the pest or weed control at 62.5 g/ha [9] of the same compound?
A: 0%

Q: What about the pest or weed control at 250 g/ha [9] of the same compound?
A: 0%

Q: What about the pest or weed control at 15.625 g/ha [10] of the same compound?
A: 0%

Q: And the pest or weed control at 62.5 g/ha [10]?
A: 0%

Q: And the pest or weed control at 250 g/ha [10]?
A: 0%

Q: And the pest or weed control at 15.625 g/ha [11]?
A: 0%

Q: And the pest or weed control at 62.5 g/ha [11]?
A: 0%

Q: What about the pest or weed control at 250 g/ha [11] of the same compound?
A: 0%

Q: What about the pest or weed control at 15.625 g/ha [12] of the same compound?
A: 0%

Q: And the pest or weed control at 62.5 g/ha [12]?
A: 0%

Q: What about the pest or weed control at 250 g/ha [12] of the same compound?
A: 0%
